The text below walks through data of patent publication US12006317B1, “5-substituted aminopyrimido [6′,1′:2,3] imidazo [4,5-c] [2,6] naphthyridine compounds as CK2 inhibitors” (KING FAISAL UNIVERSITY, priority 2023, dated 2024).

Each structure is given as a SMILES string.

For test [1], the target named is T1, recombinant human CK2 (RRββ-holoenzyme) (Homo sapiens, UniProt P68400).
T1 construct: purchased Millipore
Put plainly: CK2 Kinase Assay (33P-ATP, substrate peptide RRRDDDSDDD). The settings on record: final ATP concentration 15 μM, 10 min at 30° C.; read-out: protein kinase CK2 IC50. Format: biochemical. The procedure:
CK2 Kinase Assay was conducted using the protocol as described in Pierre F. et al; J. Med. Chem. 2011, 54, 635-654. The tested compounds in aqueous solution were added at a volume of 10 μL to a reaction mixture comprising 10 μL of assay dilution buffer (ADB; 20 mM MOPS, pH 7.2, 25 mM β-glycerol phosphate, 5 mM EGTA, 1 mM sodium orthovanadate, and 1 mM dithiothreitol), 10 μL of substrate peptide (RRRDDDSDDD, dissolved in ADB at a concentration of 1 mM), 10 μL of recombinant human CK2 (RRββ-holoenzyme, 25 ng dissolved in ADB; Millipore). Reactions were initiated by the addition of 10 μL of ATP solution (90% 75 mM MgCl2, 75 μM ATP (final ATP concentration:15 μM) dissolved in ADB; 10% [γ-33P] ATP (stock 1 mCi/100 μL; 3000 Ci/mmol (Perkin-Elmer) and maintained for 10 min at 30° C. The reactions were quenched with 100 μL of 0.75% phosphoric acid and then transferred to and filtered through a phosphor cellulose filter plate (Millipore). After washing each well five times with 0.75% phosphoric acid, the plate was dried under vacuum for 5 min and, following the addition of 15 μL of scintillation fluid to each well, the residual radioactivity was measured using a Wallac […]. The IC50 values were derived from eight concentrations of test inhibitors.

Test [2] has as its system MCF7 (breast) cancer cells. Put plainly: In vitro cytotoxic activity MTT assay, MCF7. The settings on record: Homo sapiens, cells exposed for 96 hours, read-out: IC50, 50% inhibition of cell proliferation. Format: cell-based. The procedure:
(§1) Compounds 1-12 were screened for their in vitro cytotoxic activity utilizing a 3-(4,5-dimethyl-thiazol-2-yl)-2,5-diphenyltetrazolium bromide (MTT) assay against selected cancer human cell lines consisting of PC3 (prostate), HCT116 (colon), A375 (melanoma), H1299 (lung), MIAPaCa-2 (pancreas), HL60 (leukemia), MCF7 (breast), MDA-MB-231 (breast) (T. Mosmann, J. Immmol. Meth., 1983, 65, 55-63). The cells were cultured at 37° C. in RMPI1640 medium supplemented with 10% fetal bovine serum, 50 IU/mL penicillin, and 50 μg/mL streptomycin in a 5% CO2 incubator. All cells were sub-cultured 3 times/week by trypsinisation. Viable cells were seeded and allowed to adhere for 12 h before a test drug was added in 96-well plates at an initial density of 1.0×10^5 cells/mL. Tumour cell lines were separately exposed to various concentrations of the tested compounds followed by incubation at a temperature of 37° C. during 96 h inside a medium of fresh RMPI 1640. Cells were subsequently incubated at 37° C. using MTT at 0.5 mg/mL during 4 h. After removal of supernatant, formazan crystals were dissolved in isopropanol and the optical density was measured at 570 nm. CX-4945 was used as a positive control.
A general note: Tetrazolium dyes change colour on reduction, which living cells bring about.

The test system of test [3] is MIAPaCa-2 (pancreas) cancer cells. Put plainly: In vitro cytotoxic activity MTT assay, MIAPaCa-2. The settings on record: Homo sapiens, MIA PaCa-2, cells exposed for 96 hours, read-out: IC50, 50% inhibition of cell proliferation. Format: cell-based. Here is the method: as §1
Test [4] deals with H1299 (lung) cancer cells. Put plainly: In vitro cytotoxic activity MTT assay, H1299. Format: cell-based. The settings on record: Homo sapiens, NCI-H1299, cells exposed for 96 hours, read-out: IC50, 50% inhibition of cell proliferation. Here is the method:
as §1

The test system of test [5] is A375 (melanoma) cancer cells. Put plainly: In vitro cytotoxic activity MTT assay, A375. Format: cell-based. The settings on record: Homo sapiens, A-375, cells exposed for 96 hours, read-out: IC50, 50% inhibition of cell proliferation. The procedure: as §1
Test [6] concerns PC3 (prostate) cancer cells. The experiment in a line: In vitro cytotoxic activity MTT assay, PC3. Format: cell-based. The settings on record: Homo sapiens, Prostate cell, cells exposed for 96 hours, read-out: IC50, 50% inhibition of cell proliferation. Here is the method:
as §1

For test [7], the system named is HCT116 (colon) cancer cells. Put plainly: In vitro cytotoxic activity MTT assay, HCT116. Format: cell-based. Particulars: Homo sapiens, HCT-116, cells exposed for 96 hours, read-out: IC50, 50% inhibition of cell proliferation. Here is the method: as §1
In test [8] the test system is HL60 (leukemia) cancer cells. The experiment in a line: In vitro cytotoxic activity MTT assay, HL60. Particulars: Homo sapiens, HL-60, cells exposed for 96 hours, read-out: IC50, 50% inhibition of cell proliferation. Format: cell-based. Here is the method: as §1
In test [9] the test system is MDA-MB-231 (breast) cancer cells. Put plainly: In vitro cytotoxic activity MTT assay, MDA-MB-231. Format: cell-based. Particulars: Homo sapiens, cells exposed for 96 hours, read-out: IC50, 50% inhibition of cell proliferation. Here is the method:
as §1

T1 sequence (P68400 whole entry): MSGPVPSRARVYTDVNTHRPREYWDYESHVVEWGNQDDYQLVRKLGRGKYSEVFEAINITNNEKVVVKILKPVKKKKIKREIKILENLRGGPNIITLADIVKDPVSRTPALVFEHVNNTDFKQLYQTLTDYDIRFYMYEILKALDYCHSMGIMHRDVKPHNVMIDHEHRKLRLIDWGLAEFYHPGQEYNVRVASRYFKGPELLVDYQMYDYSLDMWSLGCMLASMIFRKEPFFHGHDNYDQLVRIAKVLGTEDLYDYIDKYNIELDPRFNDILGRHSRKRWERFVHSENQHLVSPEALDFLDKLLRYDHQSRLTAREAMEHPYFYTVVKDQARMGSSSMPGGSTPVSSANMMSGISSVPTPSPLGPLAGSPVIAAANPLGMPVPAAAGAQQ
T1 sequence (P67870 whole entry partner): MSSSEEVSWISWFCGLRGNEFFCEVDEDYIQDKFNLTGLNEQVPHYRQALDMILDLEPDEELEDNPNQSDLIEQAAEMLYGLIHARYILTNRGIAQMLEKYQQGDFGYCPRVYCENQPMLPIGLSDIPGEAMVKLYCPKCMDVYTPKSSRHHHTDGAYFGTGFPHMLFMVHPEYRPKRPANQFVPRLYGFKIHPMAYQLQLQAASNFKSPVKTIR

Consider `Clc1cccc(Nc2nc3c(nc4ccncn43)c3cnccc23)c1` [Compound 1, N-(3-chlorophenyl)pyrimido[6′,1′:2,3]imidazo[4,5-c][2,6]naphthyridin-5-amine], for which the IC50 is 0.012 µM in test [1]; 5.1 µM in test [2]; 0.9 µM in test [3]; 2.1 µM in test [4]; 2.8 µM in test [5]; 1.3 µM in test [6]. For the same molecule, the IC50 turned out to be 1.2 µM in test [7], 3.4 µM in test [8] and 3.9 µM in test [9].
